Data on ten compounds can be found in PubChem BioAssay (NCI).

“And” between values parts separate entries of the source, which are not always exact repeats. Equal values may be shown once.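 1) Cells in 96-well plates. 2) Compound, 48 h, 5 concentrations. 3) Linear interpolation between surrounding doses. 4) Unreached endpoint = highest concentration. Here, GI50 denotes the concentration required for 50% inhibition of growth. At the TGI there is no net growth.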 Bounds are passed on as bounds.

Some test systems named below: 786-0 renal; KM12 colon; CCRF-CEM leukemia; HCC-2998 colon; OVCAR-4 ovarian; A549 NSCLC; RXF 393 renal; NCI-H460 lung.
Holding throughout (assay): growth of human tumour cells (NCI), 48 h

Regarding `O=C(CNC(=O)c1cccc2ccccc12)Nc1ccccc1Oc1ccc(O)cc1`, the GI50 in the assay with 786-0 renal is 1.04 µM; in the assay on KM12 colon, 0.919 µM; in the assay on CCRF-CEM leukemia it was 0.94 µM; in the assay with HCC-2998 colon it was 8.98 µM; with OVCAR-4 ovarian, 2.8 µM; with A549 NSCLC, 1.49 µM. The GI50 in the assay on RXF 393 renal was 0.5 µM; in the assay on NCI-H460 lung, 0.969 µM. In addition, the TGI in the assay on 786-0 renal, in the assay with KM12 colon, in the assay with CCRF-CEM leukemia, with HCC-2998 colon, with OVCAR-4 ovarian and in the assay with A549 NSCLC was > 25 µM throughout. Moreover, the values for the TGI in the assay with RXF 393 renal and in the assay with NCI-H460 lung were 1.72 µM and > 25 µM, respectively.

For `CCN(CC)CCN1C(=O)c2cccc3cc(N)cc(c23)C1=O`, the TGI in the assay on 786-0 renal was > 100 µM; with KM12 colon, 66.9 µM; in the assay on CCRF-CEM leukemia, > 100 µM; with HCC-2998 colon it was 21.7 µM; in the assay with OVCAR-4 ovarian, 48.3 µM; with A549 NSCLC, > 100 µM. Also, the TGI was determined as 34.1 µM in the assay on RXF 393 renal and 18.2 µM with NCI-H460 lung.

For `C/C=C/C(C/C=C(\C)CO[Si](C)(C)C(C)(C)C)O[Si](C)(C)C(C)(C)C` (centres undefined), the TGI in the assay on 786-0 renal, in the assay on KM12 colon, with CCRF-CEM leukemia, with HCC-2998 colon, with OVCAR-4 ovarian and in the assay with A549 NSCLC was > 100 µM in each case. Also, the TGI in the assay with RXF 393 renal and in the assay with NCI-H460 lung was > 100 µM in each case.

As to `Nc1c2ccccc2nc2ccccc12`, the GI50 with 786-0 renal was 2.61 µM and 3.64 µM; in the assay on KM12 colon, 2.04 µM and 3.27 µM; in the assay with CCRF-CEM leukemia, 1.69 µM and 2.3 µM; with HCC-2998 colon, 1.81 µM; in the assay with OVCAR-4 ovarian, 1.02 µM and 2.69 µM; in the assay on A549 NSCLC it was 1.52 µM and 2.87 µM. For the same compound, the GI50 in the assay with RXF 393 renal was 1.1 µM and 2.31 µM; in the assay with NCI-H460 lung, 1.44 µM and 2.5 µM. The TGI in the assay with 786-0 renal was 11.4 µM and 14.7 µM; with KM12 colon, 7.58 µM and 14 µM; in the assay on CCRF-CEM leukemia, 7.27 µM and 65.4 µM; in the assay on HCC-2998 colon, 3.93 µM; in the assay with OVCAR-4 ovarian, 6.38 µM and 7.3 µM; in the assay with A549 NSCLC, 3.94 µM and 8.81 µM. Also, the TGI with RXF 393 renal is 2.77 µM and 6.57 µM; in the assay on NCI-H460 lung, 5.17 µM and 6.88 µM.

Take `NC1=Nc2cc(OCCCCN3Cc4ccccc4C3)c(OCC3CC3)cc2C12CCCC2`: the GI50 in the assay on 786-0 renal is 1.54 µM; in the assay with KM12 colon, 1.72 µM; in the assay on CCRF-CEM leukemia, 2.48 µM; with HCC-2998 colon, 1.57 µM; with OVCAR-4 ovarian it was 3.11 µM; in the assay on A549 NSCLC, 1.99 µM. The GI50 with RXF 393 renal is 1.22 µM; with NCI-H460 lung, 1.67 µM. For the same compound, the TGI in the assay with 786-0 renal stood at 3.03 µM; in the assay with KM12 colon, 3.39 µM; in the assay with CCRF-CEM leukemia it was 9.5 µM; with HCC-2998 colon it was 3.07 µM; in the assay on OVCAR-4 ovarian, 14.7 µM; with A549 NSCLC, 4.84 µM. In addition, the values for the TGI in the assay with RXF 393 renal and with NCI-H460 lung were 2.6 µM and 3.21 µM, respectively.

Regarding `CCCCCCCCCCCCNC(=O)N[C@H](C(=O)N[C@H]1/C=C/OCCNC(=O)/C=C/[C@H](C(C)C)NC1=O)C(C)C`, the GI50 is 40.1 µM with 786-0 renal; 4.72 µM in the assay with KM12 colon; 2.16 µM with CCRF-CEM leukemia; 12.9 µM in the assay with HCC-2998 colon; 3.61 µM in the assay with OVCAR-4 ovarian; 32.3 µM in the assay with A549 NSCLC. For the same compound, the figures for the GI50 in the assay on RXF 393 renal and in the assay on NCI-H460 lung were 3.65 µM and 6.16 µM, respectively. The TGI with 786-0 renal is > 100 µM; with KM12 colon it was 30 µM; in the assay on CCRF-CEM leukemia, > 100 µM; in the assay with HCC-2998 colon, > 60.1 µM; in the assay with OVCAR-4 ovarian, > 100 µM; in the assay with A549 NSCLC it was > 100 µM. Further, the TGI turned out to be 28.2 µM with RXF 393 renal and 61.3 µM with NCI-H460 lung.

With `CCN(CC)c1ccc(C=C2C(=O)NC(=S)NC2=O)cc1`, the GI50 with 786-0 renal was 2.27 µM; in the assay with KM12 colon it was 4.52 µM; in the assay on CCRF-CEM leukemia, 2.12 µM; in the assay with HCC-2998 colon, 1.99 µM; in the assay with OVCAR-4 ovarian, 7.58 µM; with A549 NSCLC, 12.1 µM. The figures for the GI50 with RXF 393 renal and in the assay with NCI-H460 lung were 2.07 µM and 3.99 µM, respectively. In addition, the TGI in the assay on 786-0 renal stood at 4.08 µM; in the assay on KM12 colon it was 16.6 µM; with CCRF-CEM leukemia, 6.89 µM; in the assay with HCC-2998 colon it was 3.73 µM; in the assay on OVCAR-4 ovarian, 19.5 µM; with A549 NSCLC, 28 µM. Further, the results for the TGI in the assay on RXF 393 renal and in the assay on NCI-H460 lung were 3.72 µM and 15.1 µM, respectively.

As for `Cc1n[nH]c(C)c1-c1c(C)n[nH]c1C`, the GI50 in the assay on 786-0 renal was 2.37 µM; in the assay on KM12 colon it was 1.8 µM; in the assay on CCRF-CEM leukemia, 1.45 µM; in the assay with HCC-2998 colon, 1.96 µM; with OVCAR-4 ovarian, 2.28 µM; in the assay with A549 NSCLC, 1.68 µM. Moreover, the results for the GI50 in the assay on RXF 393 renal and with NCI-H460 lung were 1.52 µM and 1.82 µM, respectively. The TGI in the assay with 786-0 renal is 6.42 µM; in the assay on KM12 colon, 3.97 µM; in the assay with CCRF-CEM leukemia, > 100 µM; with HCC-2998 colon, 3.82 µM; in the assay with OVCAR-4 ovarian, 6.38 µM; with A549 NSCLC it was 4.35 µM. The values for the TGI in the assay on RXF 393 renal and in the assay with NCI-H460 lung were 3.07 µM and 3.85 µM, respectively.

Consider `CC(C)OC(=O)OCOP(=O)(OCOC(=O)OC(C)C)C1CCCN(O)C1=O` (centres undefined), for which the GI50 in the assay with 786-0 renal is 0.407 µM; with KM12 colon, 0.879 µM; in the assay on CCRF-CEM leukemia, 0.446 µM; with HCC-2998 colon it was 2.07 µM; in the assay on OVCAR-4 ovarian it was 2.32 µM; in the assay on A549 NSCLC it was 4.01 µM. Also, the GI50 with RXF 393 renal was 0.316 µM; with NCI-H460 lung, 1.14 µM. Besides, the TGI in the assay on 786-0 renal is > 100 µM; with KM12 colon it was > 100 µM; in the assay on CCRF-CEM leukemia it was > 100 µM; in the assay with HCC-2998 colon, 44.7 µM; in the assay on OVCAR-4 ovarian it was > 100 µM; in the assay on A549 NSCLC, > 100 µM. Moreover, the TGI in the assay on RXF 393 renal was 2.88 µM; in the assay with NCI-H460 lung, > 100 µM.

On to `COc1cnc2c(c1)C(=O)c1c-2n(CCCN2CCNCC2)c(=O)c2cc(F)ccc12`, for which the GI50 in the assay with 786-0 renal is 0.127 µM; in the assay on KM12 colon it was 0.168 µM; with CCRF-CEM leukemia, 0.0421 µM; in the assay with HCC-2998 colon, 1.05 µM; in the assay with OVCAR-4 ovarian it was 0.892 µM; in the assay with A549 NSCLC, 0.0164 µM. The GI50 with RXF 393 renal is 0.27 µM; with NCI-H460 lung, 0.0252 µM. For the same compound, the TGI in the assay on 786-0 renal stood at 0.511 µM; in the assay with KM12 colon, 1.16 µM; in the assay with CCRF-CEM leukemia, 1.06 µM; with HCC-2998 colon it was 2.56 µM; in the assay with OVCAR-4 ovarian it was 2.49 µM; in the assay on A549 NSCLC, 0.219 µM. Besides, the TGI in the assay on RXF 393 renal is 1.73 µM; in the assay with NCI-H460 lung it was 0.275 µM.
